Numbered stars: 1 amine (or outer) side, 2 acyl side, 3 side chain; on linkers, the order of the positions; unused ones are H or OH. Bridge positions count the residues as written; N and C are the ends. Square brackets hold non-standard residues; d marks the D form. Side chains are listed from the residue outwards. Peptide text beside a SMILES is read from it. * marks the point of attachment. NH(1-deoxy-D-glucityl) = OC[C@@H](O)[C@@H](O)[C@H](O)[C@@H](O)CN*; Trp(1-Me,7-Cl) = Cn1cc(C[C@H](N)C(=O)O)c2cccc(Cl)c21; dPhe(3-CONH2) = NC(=O)c1cccc(C[C@@H](N)C(=O)O)c1; Piperazinyl(4-CH2COOH) = O=C(O)CN1CCN(*)CC1; Trp(1-Me) = Cn1cc(C[C@H](N)C(=O)O)c2ccccc21; NMe3Pal = CN[C@@H](Cc1cccnc1)C(=O)O; NMeF = CN[C@@H](Cc1ccccc1)C(=O)O; hCit = NC(=O)NCCCC[C@H](N)C(=O)O; Gly(cBu) = N[C@H](C(=O)O)C1CCC1; NMeE = CN[C@@H](CCC(=O)O)C(=O)O; Aad = N[C@@H](CCCC(=O)O)C(=O)O; Cit = NC(=O)NCCC[C@H](N)C(=O)O; Cba = N[C@@H](CC1CCC1)C(=O)O; Chg = N[C@H](C(=O)O)C1CCCCC1; CO = O=C([*:1])[*:2]; βAla = NCCC(=O)O
Target: T1, Recombinant Human EphA2 Fc Protein (Homo sapiens, UniProt P29317)
T1 construct: purchased Elabscience
Assay: SPR interaction analysis (Biacore T200), kinetics of peptides against EphA2
Type: binding
Settings: Recombinant Human EphA2 Fc Protein captured by Human Antibody Capture kit; single-cycle kinetics; 25° C.; HBS-P+ buffer with 1% DMSO
How it was run: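 On a Biacore T200 at 25° C, Fc-tagged human EphA2 was captured via anti-human antibody; peptides ran as five serial dilutions in HBS-P+ pH 7.4 with 1% DMSO by single-cycle kinetics. Baseline-subtracted data fitted for ka and kd, from which KD was derived.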

SMILES	Kd [nM]
C[C@H]1NC(=O)CSC[C@@H](C(N)=O)NC(=O)[C@H](CCCC(N)=O)NC(=O)[C@H]([C@@H](C)O)NC(=O)[C@H](Cc2cn(C)c3ccccc23)NC(=O)[C@H](CCCCNC(=O)N2CCN(CC(=O)O)CC2)NC(=O)[C@H](Cc2cn(C)c3ccccc23)NC(=O)[C@H](Cc2ccccc2)N(C)C(=O)[C@H](CCCC(N)=O)NC(=O)[C@H](C2CCC2)NC(=O)[C@H](CC(N)=O)NC(=O)[C@H](Cc2cccnc2)N(C)C1=O [PDC_EphA2-00009999, da-Me3Py-N-Cbg-Hgn-MeF-W1Me-KCOpipzaa-W1Me-T-Hgn-C-NH2] ({CH2CO}-[dA][NMe3Pal]N[Gly(cBu)][Aad](NH2)[NMeF][Trp(1-Me)]K([CO-Piperazinyl(4-CH2COOH)])[Trp(1-Me)]T[Aad](NH2)C-NH2; thioether N-12)	< 1
C[C@@H](O)[C@@H]1NC(=O)[C@H](Cc2cn(C)c3ccccc23)NC(=O)[C@H](CCCCNC(=O)N2CCN(CC(=O)O)CC2)NC(=O)[C@H](Cc2cn(C)c3c(Cl)cccc23)NC(=O)[C@H](Cc2cccnc2)N(C)C(=O)[C@H](CCCC(N)=O)NC(=O)[C@H](C2CCC2)NC(=O)[C@H](CC(N)=O)NC(=O)[C@H](Cc2ccccc2)N(C)C(=O)[C@@H](Cc2cccc(C(N)=O)c2)NC(=O)CSC[C@@H](C(N)=O)NC(=O)[C@H](CCCC(N)=O)NC1=O [PDC_EphA2-00019436, df3CON-MeF-N-Cbg-Hgn-Me3Py-W1Me7Cl-KCOpipzaa-W1Me-T-Hgn-C-NH2] ({CH2CO}-[dPhe(3-CONH2)][NMeF]N[Gly(cBu)][Aad](NH2)[NMe3Pal][Trp(1-Me,7-Cl)]K([CO-Piperazinyl(4-CH2COOH)])[Trp(1-Me)]T[Aad](NH2)C-NH2; thioether N-12)	< 1
CC(C)C[C@@H]1NC(=O)[C@H](CC(N)=O)NC(=O)[C@H](Cc2cccnc2)N(C)C(=O)[C@@H](Cc2cccc(C(N)=O)c2)NC(=O)CSC[C@@H](C(N)=O)NC(=O)[C@H](CC(N)=O)NC(=O)[C@H]([C@@H](C)O)NC(=O)[C@H](Cc2cn(C)c3ccccc23)NC(=O)[C@H](CCC(=O)NC[C@H](O)[C@@H](O)[C@H](O)[C@H](O)CO)NC(=O)[C@H](Cc2cn(C)c3c(Cl)cccc23)NC(=O)[C@H](Cc2ccccc2)N(C)C(=O)[C@H](CC(N)=O)NC1=O [PDC_EphA2-00026424, df3CON-Me3Py-N-L-N-Me3Py-W1Me7Cl-Qglucamine-W1Me-T-N-C-NH2] ({CH2CO}-[dPhe(3-CONH2)][NMe3Pal]NLN[NMeF][Trp(1-Me,7-Cl)]E(NH(1-deoxy-D-glucityl))[Trp(1-Me)]TNC-NH2; thioether N-12)	< 1
C[C@H]1NC(=O)CSC[C@@H](C(N)=O)NC(=O)[C@H](CCCC(N)=O)NC(=O)[C@H]([C@@H](C)O)NC(=O)[C@H](Cc2cn(C)c3ccccc23)NC(=O)[C@H](CCCCNC(=O)N2CCN(CC(=O)O)CC2)NC(=O)[C@H](Cc2cn(C)c3ccccc23)NC(=O)[C@H](Cc2ccccc2)N(C)C(=O)[C@H](CC(=O)N(C)C)NC(=O)[C@H](C2CCCCC2)NC(=O)[C@H](CC(N)=O)NC(=O)[C@H](Cc2cccnc2)N(C)C1=O [PDC_EphA2-00018537, da-Me3Py-N-Chg-Ndm-MeF-W1Me-KCOpipzaa-W1Me-T-Hgn-C-NH2] ({CH2CO}-[dA][NMe3Pal]N[Chg]D(NMe2)[NMeF][Trp(1-Me)]K([CO-Piperazinyl(4-CH2COOH)])[Trp(1-Me)]T[Aad](NH2)C-NH2; thioether N-12)	< 1
CC(C)C[C@@H]1NC(=O)[C@H](CC(N)=O)NC(=O)[C@H](Cc2cccnc2)N(C)C(=O)[C@@H](C)NC(=O)CSC[C@@H](C(N)=O)NC(=O)[C@H](CCCC(N)=O)NC(=O)[C@H]([C@@H](C)O)NC(=O)[C@H](Cc2cn(C)c3ccccc23)NC(=O)[C@H](CCCCNC(=O)N2CCN(CC(=O)O)CC2)NC(=O)[C@H](Cc2cn(C)c3ccccc23)NC(=O)[C@H](Cc2ccccc2)N(C)C(=O)[C@H](CCCC(N)=O)NC1=O [PDC_EphA2-00009998, da-Me3Py-N-L-Hgn-MeF-W1Me-KCOpipzaa-W1Me-T-Hgn-C-NH2] ({CH2CO}-[dA][NMe3Pal]NL[Aad](NH2)[NMeF][Trp(1-Me)]K([CO-Piperazinyl(4-CH2COOH)])[Trp(1-Me)]T[Aad](NH2)C-NH2; thioether N-12)	< 1
CC(=O)NCCCC[C@@H](NC(=O)CCNC(=O)[C@@H]1CSCC(=O)N[C@H](CCCCNC(=O)N2CCN(CC(=O)O)CC2)C(=O)N(C)[C@@H](Cc2cccnc2)C(=O)N[C@@H](CC(N)=O)C(=O)N[C@@H](CC(C)C)C(=O)N[C@@H](CCCCNC(=O)N2CCN(CC(=O)O)CC2)C(=O)N(C)[C@@H](Cc2ccccc2)C(=O)N[C@@H](Cc2cn(C)c3ccccc23)C(=O)N[C@@H](C(C)C)C(=O)N[C@@H](Cc2cn(C)c3ccccc23)C(=O)N[C@@H]([C@@H](C)O)C(=O)N[C@@H](CCCC(N)=O)C(=O)N1)C(N)=O [PDC_EphA2-00008086, dkCOpipzaa-Me3Py-N-L-KCOpipzaa-MeF-W1Me-V-W1Me-T-Hgn-C-bA-dkAc-NH2] ({CH2CO}-[dK]([CO-Piperazinyl(4-CH2COOH)])[NMe3Pal]NLK([CO-Piperazinyl(4-CH2COOH)])[NMeF][Trp(1-Me)]V[Trp(1-Me)]T[Aad](NH2)C[βAla][dK](Ac)-NH2; thioether N-12)	< 1

Results, then the compound that gave them:

Kd [nM]	SMILES
< 1	CC(C)C[C@@H]1NC(=O)[C@H](CC(N)=O)NC(=O)[C@H](Cc2ccccc2)N(C)C(=O)[C@@H](Cc2cccc(C(N)=O)c2)NC(=O)CSC[C@@H](C(N)=O)NC(=O)[C@H](CC(N)=O)NC(=O)[C@H]([C@@H](C)O)NC(=O)[C@H](Cc2cn(C)c3ccccc23)NC(=O)[C@H](CCCNC(N)=O)NC(=O)[C@H](Cc2cn(C)c3c(Cl)cccc23)NC(=O)[C@H](CCC(=O)O)N(C)C(=O)[C@H](CC(N)=O)NC1=O [PDC_EphA2-00026426, df3CON-Me3Py-N-L-N-MeN-W1Me7Cl-Cit-W1Me-T-N-C-NH2] ({CH2CO}-[dPhe(3-CONH2)][NMeF]NLN[NMeE][Trp(1-Me,7-Cl)][Cit][Trp(1-Me)]TNC-NH2; thioether N-12)
< 1	C[C@@H](O)[C@@H]1NC(=O)[C@H](Cc2cn(C)c3ccccc23)NC(=O)[C@H](CCCCNC(=O)N2CCN(CC(=O)O)CC2)NC(=O)[C@H](Cc2cn(C)c3c(Cl)cccc23)NC(=O)[C@H](CCC(=O)O)N(C)C(=O)[C@H](CCCC(N)=O)NC(=O)[C@H](C2CCC2)NC(=O)[C@H](CC(N)=O)NC(=O)[C@H](Cc2cccnc2)N(C)C(=O)[C@@H](Cc2cccc(C(N)=O)c2)NC(=O)CSC[C@@H](C(N)=O)NC(=O)[C@H](CCCC(N)=O)NC1=O [PDC_EphA2-00019440, df3CON-Me3Py-N-Cbg-Hgn-MeE-W1Me7Cl-KCOpipzaa-W1Me-T-Hgn-C-NH2] ({CH2CO}-[dPhe(3-CONH2)][NMe3Pal]N[Gly(cBu)][Aad](NH2)[NMeE][Trp(1-Me,7-Cl)]K([CO-Piperazinyl(4-CH2COOH)])[Trp(1-Me)]T[Aad](NH2)C-NH2; thioether N-12)
100 to 400	C[C@H]1NC(=O)CSC[C@@H](C(=O)NCC(N)=O)NC(=O)[C@H](Cc2cn(C)c3ccccc23)NC(=O)[C@H](CCCCNC(N)=O)NC(=O)[C@H](Cc2cn(C)c3ccccc23)NC(=O)[C@H](CC(N)=O)NC(=O)[C@H]([C@@H](C)O)NC(=O)[C@H](CC2CCC2)NC(=O)[C@H](CC(N)=O)NC(=O)[C@H](Cc2ccccc2)N(C)C1=O [PDC_EphA2-00021407-L092, da-MeF-N-Cba-T-N-W1Me-Hcit-W1Me-C-G-NH2] ({CH2CO}-[dA][NMeF]N[Cba]TN[Trp(1-Me)][hCit][Trp(1-Me)]CG-NH2; thioether N-10)
